Patent publication US10213482B2, “Methods of treating chronic inflammatory diseases” (Centre National de la Recherche Scientifique, priority 2014, dated 2019)
Square brackets hold non-standard residues; d marks the D form. Ends that are not written are not given here. Peptide text beside a SMILES is read from it. Met(O) = CS(=O)CC[C@H](N)C(=O)O; pS = N[C@@H](COP(=O)(O)O)C(=O)O

Tests used:
[1] = Stability of the peptides at 37° C. in 10% mannitol (HPLC peak area); type: physicochemical
Procedure: The stability of the peptide SEQ ID NO: 1 in which the serine at position 10 is phosphorylated and the methionine at position 4 is oxydized (P140(MO)), and the peptide SEQ ID NO: 1 in which the serine at position 10 is phosphorylated (P140) was measured at 37° C., in a solution of 10% (v/v) mannitol. For each peptide, 3 concentrations have been tested: 200, 100 and 50 μg/mL.
At the indicated time, the integrity of P140 and P140(MO) peptides was measured in saline by high-performance liquid chromatography from the area of the peak corresponding to the intact peptide.
Stability is measured by using the HPLC peak surface.

Balb/c mice = assay: 15-day ovalbumin-induced airway hypereosinophilia model, BAL cell counts; type: in vivo, mouse; details: i.n. or i.v., control mice challenged with saline; no pro-inflammatory effect
Procedure: The anti-inflammatory effect of the P140 phosphopeptide was evaluated when administered locally (intranasally) or systemically (intravenously) in a 15-day model of hypereosinophilic airway inflammation in mice.
The P140 phosphopeptide was solubilized in sterile water (Braun) and 10× concentrate sterile saline was added to adjust osmolarity to 300 mosm. Osmolarity was controlled with a micro osmometer (Loser, type 15) and validated (302 mosm).
The P140 phosphopeptide was used in vivo at the dose of 4 mg/kg by intranasal (i.n.) and intravenous (i.v.) routes. Control animals received equivalent volumes (1 ml/kg for i.n. and 2 ml/kg for i.v.) of saline (Table 6).
Nine-week-old male Balb/c mice were sensitized by intraperitoneal (i.p.) injections of a mixture containing 50 μg OVA (Sigma-Aldrich) and 2 mg alum (Sigma-Aldrich) in 0.1 ml saline. Mice were challenged by i.n. administration of 25 μl of OVA on day 5, then 25 μl of OVA and/or saline on day 12, 13 and 14. […]
BAL was performed twenty-four hours after LPS challenge as described (Daubeuf, F. and Frossard, N. 2012. Performing Bronchoalveolar Lavage in the Mouse. Curr Protoc Mouse Biol 2:167-175). […] The cell pellet was suspended in 500 μl of 0.9% NaCl and used for total cell counts evaluated on a Muse® Cell Analyser. Differential cell counts were assessed by flow cytometry (LSRII® cytometer, BD Bioscience). […]

MRL/lpr mice [2] = assay: Proteinuria analysis in MRL/lpr mice (Albustix); type: in vivo, mouse; details: compared to the untreated mice
Procedure: Proteinuria of the above mice was measured in fresh urine using Albustix (Bayer Diagnostics) and was semi-quantitatively estimated according to a […] recommended by the manufacturer (no proteinuria=0; traces=1; 1+=2; 2+=3; 3+=4; 4+=5).
Statistical tests were performed using GraphPad Prism version 5.0. The two-way ANOVA test was used to analyze statistical significance of proteinuria differences between control and peptide-treated groups of mice. Survival of control and P140 analogue-treated female MRL/lpr mice was analyzed by the Kaplan-Meier method, and the significance of differences was determined by the log-rank test. For the other variables, statistical significance was assessed using the Student's t-test. p values less than 0.05 were considered significant.

MRL/lpr mice [3] = assay: Cellularity analysis of peripheral blood in MRL/lpr mice; type: in vivo, mouse; details: 100 μg/100 μL, 5 days after unique injection
Procedure: MRL/lpr mice were injected with 100 μg/100 μL of P140 or P140(MO) and cellularity (preipheral blood) was studied 5 days after this unique injection. The count includes all the leucocytes. In view of the low number of tested mice, a non parametric statistical test has been realised Mann-Whitney).

Recombinant bovine HSC70 = molecular target: T1, Recombinant bovine HSC70 (Bos taurus, UniProt P19120); assay: BIAcore binding of P140 peptides to HSC70
T1 construct: purchased Stressgen
Procedure: BIAcore 3000 system (Biacore AB) was used to evaluate the binding of P140 peptides to HSC70 protein (Page et al., 2009, and 2011). Sensor chip CMS, surfactant P20, amine coupling kit containing N-hydroxysuccinimide (NHS) and N-ethyl-N′-dimethylaminopropyl carbodiimide (EDC), 2-(2-pyridinyldithio)ethaneamine (PDEA) and ethanolamine were from Biacore AB. Biosensor assays were performed with HBS-EP buffer as running buffer (10 mM HEPES, 150 mM NaCl, 3 mM EDTA, 0.005% surfactant P20, pH 7.4). The compounds were diluted in the running buffer. The sensor chip surface was regenerated after each experiment by injecting 10 μL of 10 mM HCl. Recombinant bovine HSC70 (Stressgen) was immobilized on flow cells of a CMS sensor chip through its thiol groups using 35 μL PDEA in 50 mM borate buffer, pH 8.3 on the NHS/EDC-activated matrix. Then, 35 μL of HSC70 (100 μg/mL in formate buffer, pH 4.3) were injected until a response of 13,000 response units (RU) corresponding to 13 ng/mm^2 of HSC70 was immobilized. Twenty μL of a 50 mM cysteine/1 M NaCl solution was used to saturate unoccupied sites on the chip. The direct binding measurement of P140 peptides to HSC70 was carried out at 25° C. with a constant flow rate of 20 μL/min. […] The kinetic parameters were calculated using the BIAeval 3.1 software on a personal computer. […]

mice = details: Monneaux et al., 2003; cited from earlier work

T1 sequence (P19120 whole entry): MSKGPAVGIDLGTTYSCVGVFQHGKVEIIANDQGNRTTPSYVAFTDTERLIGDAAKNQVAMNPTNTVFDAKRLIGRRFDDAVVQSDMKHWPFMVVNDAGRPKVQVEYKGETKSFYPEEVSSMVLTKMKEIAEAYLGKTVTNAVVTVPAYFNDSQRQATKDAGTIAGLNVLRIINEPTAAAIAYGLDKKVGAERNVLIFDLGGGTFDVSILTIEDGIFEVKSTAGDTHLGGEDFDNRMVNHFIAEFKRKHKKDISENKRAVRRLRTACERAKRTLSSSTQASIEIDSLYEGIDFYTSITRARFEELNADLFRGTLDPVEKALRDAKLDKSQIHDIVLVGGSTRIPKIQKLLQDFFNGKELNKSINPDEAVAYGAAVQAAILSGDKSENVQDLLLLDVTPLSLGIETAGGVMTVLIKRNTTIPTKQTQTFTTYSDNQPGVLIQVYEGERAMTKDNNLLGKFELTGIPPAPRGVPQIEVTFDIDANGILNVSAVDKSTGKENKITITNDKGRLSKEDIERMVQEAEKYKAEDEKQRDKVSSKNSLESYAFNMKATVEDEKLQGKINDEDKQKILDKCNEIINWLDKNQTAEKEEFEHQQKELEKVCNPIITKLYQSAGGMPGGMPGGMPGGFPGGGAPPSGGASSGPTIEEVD

Compound | Stability (%) Linear equation: coefficient of x (days) ([1]; 50 μg/mL) | Stability (%) Linear equation: constant term ([1]; 50 μg/mL) | Stability (%) Linear equation: coefficient of x (days) ([1]; 100 μg/mL) | Stability (%) Linear equation: constant term ([1]; 100 μg/mL) | Stability (%) Linear equation: coefficient of x (days) ([1]; 200 μg/mL) | Stability (%) Linear equation: constant term ([1]; 200 μg/mL) | Number of cells recovered in BAL fluid as compared to vehicle (Balb/c mice) | Proteinuria score over time (MRL/lpr mice [2]) | Peripheral hypercellularity (leucocytes in blood) (MRL/lpr mice [3]) | Affinity for HSC70 protein, comparison of oxidized and non-oxidized peptide (Recombinant bovine HSC70) | Protection against disease development (mice)
CC[C@H](C)[C@H](NC(=O)[C@H](Cc1ccccc1)NC(=O)[C@H](C)NC(=O)[C@H](Cc1ccc(O)cc1)NC(=O)CNC(=O)[C@H](CCCNC(=N)N)NC(=O)[C@@H]1CCCN1C(=O)[C@H](CCCCN)NC(=O)CNC(=O)[C@H](COP(=O)(O)O)NC(=O)[C@H](CCCNC(=N)N)NC(=O)[C@H](CCCCN)NC(=O)[C@H](CO)NC(=O)[C@H](Cc1ccc(O)cc1)NC(=O)[C@@H](NC(=O)[C@H](CCSC)NC(=O)[C@H](Cc1c[nH]cn1)NC(=O)[C@@H](NC(=O)[C@@H](N)CCCNC(=N)N)[C@@H](C)CC)C(C)C)C(=O)N[C@@H](CCC(=O)O)C(=O)N[C@@H](Cc1ccc(O)cc1)C(=O)O [Compound P140] (H-RIHMVYSKR[pS]GKPRGYAFIEY-OH) | y = −0.099x + | 98.299 | y = −0.0612x + | 99.25 | y = −0.0238x + | 99.535 | little effect per se | – | – | – | –
CC[C@H](C)[C@H](NC(=O)[C@H](Cc1ccccc1)NC(=O)[C@H](C)NC(=O)[C@H](Cc1ccc(O)cc1)NC(=O)CNC(=O)[C@H](CCCNC(=N)N)NC(=O)[C@@H]1CCCN1C(=O)[C@H](CCCCN)NC(=O)CNC(=O)[C@H](COP(=O)(O)O)NC(=O)[C@H](CCCNC(=N)N)NC(=O)[C@H](CCCCN)NC(=O)[C@H](CO)NC(=O)[C@H](Cc1ccc(O)cc1)NC(=O)[C@@H](NC(=O)[C@H](CC[S+](C)[O-])NC(=O)[C@H](Cc1c[nH]cn1)NC(=O)[C@@H](NC(=O)[C@@H](N)CCCNC(=N)N)[C@@H](C)CC)C(C)C)C(=O)N[C@@H](CCC(=O)O)C(=O)N[C@@H](Cc1ccc(O)cc1)C(=O)O (stereo partly shown) [P140(MO), RIHM(O)VYSKRS(PO3H2)GKPRGYAFIEY] (H-RIH[Met(O)]VYSKR[pS]GKPRGYAFIEY-OH) | y = −0.0064x + | 99.677 | y = −0.0064x + | 100.11 | – | y = 100 | – | less important and appears lately | decrease peripheral hypercellularity | not statistically different | –
non-phosphorylated peptide: non-phosphorylated form of P140, not protective against disease development in mice (RIHMVYSKRSGKPRGYAFIEY; not fully specified; UniProt P08621 131-151, looked up, fragment) | – | – | – | – | – | – | – | – | – | – | not protective
